From ChEMBL document CHEMBL1201862, “PubChem BioAssay data set” (2004)
Activity calls are given as the source filed them.

What was measured:
[1] = biological target: T1, DNA repair protein RAD52 homolog (Homo sapiens, UniProt P43351); format: functional, biochemical
T1 sequence (P43351 whole entry): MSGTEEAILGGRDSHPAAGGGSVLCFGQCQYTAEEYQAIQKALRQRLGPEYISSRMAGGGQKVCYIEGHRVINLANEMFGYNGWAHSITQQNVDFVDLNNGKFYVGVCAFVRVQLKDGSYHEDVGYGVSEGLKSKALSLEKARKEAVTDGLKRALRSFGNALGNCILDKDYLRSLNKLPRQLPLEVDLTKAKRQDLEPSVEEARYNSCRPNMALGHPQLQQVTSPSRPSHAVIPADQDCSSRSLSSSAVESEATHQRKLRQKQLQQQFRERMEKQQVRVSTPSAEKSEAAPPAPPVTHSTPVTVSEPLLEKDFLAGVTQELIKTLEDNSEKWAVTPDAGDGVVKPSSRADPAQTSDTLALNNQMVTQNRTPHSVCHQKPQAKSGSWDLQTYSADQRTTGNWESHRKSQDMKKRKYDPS

[2] = inhibitors of clade B AD8 Env fusion, dose response, cell-based, cherry-pick (AID 652062); format: functional;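 note: luciferase signal from cell-cell fusion driven by HIV-1 clade B AD8 Env; potency is for inhibitors of fusion seen as a drop in luminescence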
[3] = inhibitors of HIV Env-driven cell fusion, dose response, cherry-pick (AID 652057); format: functional, cell-based
[4] = off-target signal loss in HeLa-CEM21 co-culture – HeLa F-luc CTL cells, cherry-picked, counter-screen for HIV-1 Env fusion inhibitor project, dose response (AID 652040); format: functional, cell-based;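 note: potency for signal decrease marking cytotoxic or nonspecific inhibition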
[5] = ZM109 Env clade C HIV-1 fusion inhibitors, dose response, HeLa effector, CEM target cells, luciferase, cherry-pick (AID 652058); format: functional, cell-based
Genome polyprotein = Genome polyprotein (dengue virus type 2, UniProt P29990); assay: Dengue-2 NS5 methyltransferase inhibitors, primary screen, biochemical, confirmation dose response (AID 588689); format: functional
[6] = biological target: T2, Sentrin-specific protease 8 (Homo sapiens, UniProt Q96LD8); format: functional
T2 sequence (Q96LD8 whole entry): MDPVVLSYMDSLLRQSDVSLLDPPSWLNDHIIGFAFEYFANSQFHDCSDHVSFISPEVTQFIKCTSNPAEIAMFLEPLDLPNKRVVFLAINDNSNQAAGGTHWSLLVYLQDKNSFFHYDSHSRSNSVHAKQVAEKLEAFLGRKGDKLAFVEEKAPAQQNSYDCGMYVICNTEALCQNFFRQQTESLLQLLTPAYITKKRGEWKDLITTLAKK

[7] = biological target: T2, Sentrin-specific protease 8; format: functional; remark: listed apart in the source
[8] = Luminescence-based cell-based high throughput dose response assay to identify activators of the DAF-12 from the parasite S. stercoralis (ssDAF-12).; format: functional
[9] = biological target: T3, Oxysterols receptor LXR-beta (Homo sapiens, UniProt P55055); assay: LXR agonists, Gal4 luciferase reporter, dose response, counter-screen for ssDAF-12 agonist project, cell-based, luminescence, HEK293, S. stercoralis campaign (AID 720737); format: functional; settings: read-out: IC50 (the source's name)
T3 sequence (P55055 whole entry): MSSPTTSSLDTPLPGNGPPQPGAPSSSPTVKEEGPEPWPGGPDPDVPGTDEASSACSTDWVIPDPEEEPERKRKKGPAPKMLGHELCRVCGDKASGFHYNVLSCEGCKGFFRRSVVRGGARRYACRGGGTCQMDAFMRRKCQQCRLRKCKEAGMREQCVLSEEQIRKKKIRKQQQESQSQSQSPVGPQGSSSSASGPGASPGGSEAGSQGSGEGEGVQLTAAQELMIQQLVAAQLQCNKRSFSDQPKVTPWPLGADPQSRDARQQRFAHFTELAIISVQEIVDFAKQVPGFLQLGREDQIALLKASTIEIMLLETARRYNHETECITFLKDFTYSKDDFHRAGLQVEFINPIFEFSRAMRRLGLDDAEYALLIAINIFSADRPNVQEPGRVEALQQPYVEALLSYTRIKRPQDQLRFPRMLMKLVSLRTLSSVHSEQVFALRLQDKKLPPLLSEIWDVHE

Aminopeptidase N = biological target: T4, Aminopeptidase N (Plasmodium falciparum FcB1/Columbia, UniProt O96935); assay: P. falciparum M1AAP inhibitors, biochemical, fluorogenic H-Leu-NHMec substrate, 1536-well (AID 1445); set-up: species or system Plasmodium falciparum 3D7, 3D7
T4 sequence (O96935 whole entry): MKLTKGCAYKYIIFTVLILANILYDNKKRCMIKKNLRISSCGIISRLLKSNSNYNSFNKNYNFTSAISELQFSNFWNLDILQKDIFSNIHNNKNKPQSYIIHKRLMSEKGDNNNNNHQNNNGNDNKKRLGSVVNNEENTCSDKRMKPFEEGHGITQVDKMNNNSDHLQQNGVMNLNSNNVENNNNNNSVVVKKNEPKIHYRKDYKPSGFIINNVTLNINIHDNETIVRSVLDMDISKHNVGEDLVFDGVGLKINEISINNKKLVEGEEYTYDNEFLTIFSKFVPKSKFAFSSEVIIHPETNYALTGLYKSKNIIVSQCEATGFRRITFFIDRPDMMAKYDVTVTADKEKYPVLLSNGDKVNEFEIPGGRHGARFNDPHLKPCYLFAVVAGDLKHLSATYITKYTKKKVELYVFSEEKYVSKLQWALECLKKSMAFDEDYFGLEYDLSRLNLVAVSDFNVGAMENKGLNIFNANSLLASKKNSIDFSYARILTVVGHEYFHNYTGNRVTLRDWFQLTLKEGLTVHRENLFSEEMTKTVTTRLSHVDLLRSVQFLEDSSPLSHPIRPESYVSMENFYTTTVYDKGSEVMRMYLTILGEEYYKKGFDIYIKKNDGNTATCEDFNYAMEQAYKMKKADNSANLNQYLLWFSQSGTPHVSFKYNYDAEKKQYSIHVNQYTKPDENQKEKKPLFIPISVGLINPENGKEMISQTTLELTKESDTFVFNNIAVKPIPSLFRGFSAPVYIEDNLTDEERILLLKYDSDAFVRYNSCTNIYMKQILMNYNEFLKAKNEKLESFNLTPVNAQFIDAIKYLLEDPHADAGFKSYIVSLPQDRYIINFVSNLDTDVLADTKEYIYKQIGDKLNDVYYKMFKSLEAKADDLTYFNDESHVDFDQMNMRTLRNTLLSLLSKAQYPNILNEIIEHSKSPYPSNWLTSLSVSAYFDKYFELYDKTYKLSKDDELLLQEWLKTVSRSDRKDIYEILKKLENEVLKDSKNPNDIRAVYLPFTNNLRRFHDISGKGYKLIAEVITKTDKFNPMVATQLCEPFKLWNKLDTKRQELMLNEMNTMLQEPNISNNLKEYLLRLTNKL

Bcl-2-like protein 10 = biological target: T5, Bcl-2-like protein 10 (Homo sapiens, UniProt Q9HD36); assay: displacers of TR3 peptide from Bcl-B, primary screen, selectivity assay for Bfl-1 inhibitor project, biochemical, fluorescence polarization, FITC-TR3 peptide (AID 748);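 note: fluorescence polarization from a fluorescein-labelled TR3 peptide binding purified Bcl-B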
T5 sequence (Q9HD36 whole entry): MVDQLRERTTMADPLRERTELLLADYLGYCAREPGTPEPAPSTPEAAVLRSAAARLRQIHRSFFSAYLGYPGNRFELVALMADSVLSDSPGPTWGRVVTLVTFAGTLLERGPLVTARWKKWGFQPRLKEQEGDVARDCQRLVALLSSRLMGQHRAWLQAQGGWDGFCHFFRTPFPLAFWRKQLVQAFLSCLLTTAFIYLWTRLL

[10] = Luminescence Cell-Based Dose Confirmation to Identify Activators of 5'UTR Stem-Loop Driven Alpha-Synuclein mRNA Translation in H4 Neuroglioblastoma Cells. [Related pubchem assays: 1829 (Project Summary), 1814 (Primary HTS)]; format: functional
[11] = Luminescence Cell-Based Dose Response HTS to Identify Activators of Luciferase Translation or Activity in H4 […] Cells. [Related pubchem assays: 1829 (Project Summary), 1814 (Primary HTS)]; format: functional
[12] = Luminescence Cell-Based Dose Response to Identify Activators of 5'UTR Stem-Loop Driven Prion Protein mRNA Translation in H4-C Neuroglioblastoma Cells. [Related pubchem assays: 1829 (Project Summary), 1814 (Primary HTS)]; format: functional
[13] = Luminescence Cell-Based Dose Response to Identify Activators of Luciferase Translation or Activity in H4-C Neuroglioblastoma Cells. [Related pubchem assays: 1829 (Project Summary), 1814 (Primary HTS)]; format: functional

Chain of Genome polyprotein (P29990 2492-3391 limits assumed): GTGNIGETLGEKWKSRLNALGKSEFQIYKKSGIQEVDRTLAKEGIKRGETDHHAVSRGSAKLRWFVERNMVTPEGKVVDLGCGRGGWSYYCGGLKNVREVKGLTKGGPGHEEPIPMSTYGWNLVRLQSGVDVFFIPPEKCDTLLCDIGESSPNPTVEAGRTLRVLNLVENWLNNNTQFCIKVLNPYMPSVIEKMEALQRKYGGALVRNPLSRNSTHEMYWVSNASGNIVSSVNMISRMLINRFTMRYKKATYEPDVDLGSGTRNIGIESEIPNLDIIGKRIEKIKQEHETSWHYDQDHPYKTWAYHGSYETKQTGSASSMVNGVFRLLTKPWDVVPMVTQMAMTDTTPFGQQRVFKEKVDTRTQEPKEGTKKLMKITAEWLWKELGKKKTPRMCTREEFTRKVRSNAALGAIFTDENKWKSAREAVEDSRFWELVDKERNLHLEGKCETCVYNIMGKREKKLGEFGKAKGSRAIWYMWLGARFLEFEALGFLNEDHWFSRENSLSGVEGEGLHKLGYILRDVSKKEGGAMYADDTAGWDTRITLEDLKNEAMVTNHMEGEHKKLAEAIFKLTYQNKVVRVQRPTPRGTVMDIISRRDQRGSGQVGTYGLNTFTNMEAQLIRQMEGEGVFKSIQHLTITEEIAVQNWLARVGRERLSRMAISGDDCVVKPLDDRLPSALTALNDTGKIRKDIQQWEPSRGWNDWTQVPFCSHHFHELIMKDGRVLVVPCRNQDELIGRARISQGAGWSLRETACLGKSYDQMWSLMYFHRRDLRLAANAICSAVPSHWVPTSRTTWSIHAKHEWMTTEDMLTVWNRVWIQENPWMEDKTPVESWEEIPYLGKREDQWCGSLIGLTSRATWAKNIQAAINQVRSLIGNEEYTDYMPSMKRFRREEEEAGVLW

With `CCOC(=O)N1CCN(C(S)=Nc2ccc3nc(N4CCN(CC)CC4)cc(C)c3c2)CC1` the AC50 [1] was 15 µM (active).

With `COc1ccc([C@@H]2[C@@H]3C(=O)N(C(C)(C)C)C(=O)[C@@H]3[C@]3(CC(C)C)C(=O)N(c4cccc(Br)c4)C(=O)N23)cc1` the AC50 [2] was < 0.26 µM (active), the AC50 [3] was < 0.26 µM (active) and the AC50 [4] was < 0.26 µM (active). For the same molecule, the AC50 [5] was < 0.26 µM (active).

In the case of `COC/C=C/C1=CC2=CC(=O)C(C)(OC(=O)c3cnc4ccccc4n3)C(=O)C2=CN1C1CC1` (stereo unspecified), the IC50 (Genome polyprotein) is reported as > 100 µM (active), the IC50 [6] is reported as 16.6 µM (active) and the IC50 [7] is reported as 6.36 µM (active).

In the case of `COc1ccc(CSc2nnc3nc(O)cc(N)n23)cc1`, the IC50 [8] is reported as > 67.6 µM (inactive) and the EC50 [9] is reported as > 67.6 µM (inactive).

For `Cc1ccc(S(=O)(=O)Nc2nc3ccc(S(=O)(=O)N4CCCC4)cc3s2)cc1`, the IC50 (Aminopeptidase N) was 53.5 µM (active).

In the case of `Cc1cccc(OCC(=O)Nc2ccc(S(=O)(=O)N3CCCC3)cc2)c1`, the IC50 (Bcl-2-like protein 10) is reported as > 100 µM (inactive).

In the case of `Cc1nc2c(C(=O)N3CCCCC3)cnn2c(C)c1Cc1ccccc1F`, the EC50 [10] is reported as > 12 µM (not active), the EC50 [11] is reported as < 0.1 µM (active) and the EC50 [12] is reported as 0.57 µM (active). For the same molecule, the EC50 [13] was 0.267 µM (active).
